{"source": "patent US20060009475A1", "about": "“Quinazolinone compounds in combined modalities for improved cancer treatment” (priority 2001, published 2006)", "key": {"[1]": {"tested_on": "human T98G glioblastoma (ic tumor)", "experiment": "Human T98G glioblastoma implanted intracranially, survival (increase-in-lifespan)", "conditions": "BCNU 15 mg/kg ip, days 7, 9, 11, alone", "description": "Halofuginone was tested in the human T98G glioblastoma xenograft implanted subcutaneously or intracranially. Mice were implanted with the human T98G glioblastoma tumor cells subcutaneously in a thigh or intracranially.\nHalofuginone was administered orally by gavage at dose levels of 0.1,0.2, and 0.5 mg/kg/day, once per day, on days 4 through 34 days post tumor implantation. Each group contained 5 mice.\nThe endpoint for the subcutaneous tumor was tumor growth delay while the endpoint for the intracranial tumor was increase-in-lifespan (survival)."}, "[2]": {"tested_on": "human T98G glioblastoma xenograft (sc tumor)", "format": "in vivo, mice", "conditions": "BCNU 15 mg/kg ip, days 7, 9, 11, alone", "text": "Each group contained 5 mice."}, "[3]": {"tested_on": "radiation-induced fibrosis (leg contraction)", "experiment": "Leg contraction model of radiation-induced fibrosis", "format": "in vivo, mice", "experimental": "Mice were injected intraperitoneally once daily with 1-5 μg/mouse of halofuginone, for a period of 4 months.\nThe right leg only of each animal was radiated with 35Gy or 45Gy. […] Measurements were taken within time periods of 2 to 4 months after radiation."}, "[4]": {"tested_on": "pancreatic cancer cell lines 3602 Xrt and 3602 Zyrd/Xrt", "experiment": "Radiation survival of pancreatic cancer cell lines pre-treated with halofuginone", "format": "cell-based, human", "conditions": "250 nM halofuginone for 24 hr, then radiated with 0-8 Gy", "experimental": "Two pancreatic cancer cell lines: 3602 Xrt and 3602 Zyrd/Xrt were incubated with or without 250 nM halofuginone for 24 hr, than radiated with 0-8 Gy. Survival fraction of the cell was determined."}, "[5]": {"tested_on": "rat mesangial cells (RMC)", "experiment": "Cell cycle analysis of mesangial cells by propidium iodide FACScan", "format": "cell-based", "conditions": "150 ng/ml halofuginone, 24 hours, 10% FCS", "experimental": "Further experiments were conducted to determine whether halofuginone arrests mesangial cell proliferation at a specific phase of the cell cycle.\nFor this purpose sub confluent RMC's were kept in 10% FCS in the absence or presence of 150 ng/ml halofuginone for 24 hours. The cells were then harvested, stained with propidium iodide and analyzed by FACScan. The percentage of cells progressing into G2/M phase was reduced by halofuginone from 20% to 7%. The percentage of cells in G0/G1 was increased from 38% in the absence of halofuginone to 65% in the presence of halofuginone."}, "[6]": {"tested_on": "U266 cells", "experiment": "Cell cycle analysis of multiple myeloma cells by flow cytometry", "format": "cell-based", "conditions": "48 hours, different concentrations", "experimental": "Multiple Myeloma (MM) cell line U266B1 was purchased from ATCC (TIB-196).\nCells (10^6) were incubated for 48 hours with different concentrations of halofuginone. The cells were permeabilized with 70% ethanol in PBS for 30 minutes at 4° C., and then incubated with 0.5 ml of a 50 μg/ml Propidium Iodide solution containing 20 U/ml RnaseA for 30 minutes. Cells were analyzed by flow cytometry."}, "[7]": {"tested_on": "rabbit aortic smooth muscle cells (SMC)", "experiment": "[3H]-thymidine incorporation / cell cycle arrest in serum-stimulated smooth muscle cells", "format": "cell-based", "experimental": "Experiments were conducted to determine the specific phase of the cell cycle in which SMC treated with halofuginone were arrested.\nAs determined by [^3H]-thymidine incorporation, addition of 10% FBS to growth-arrested, quiescent SMC promotes entry of the cells to S phase after a G1 period of 16 hours. Maximal DNA synthesis was seen 20 hours after serum-stimulation (FIG. 1).\nIt was next determined whether halofuginone arrested proliferation at a specific stage in the cell cycle. For these experiments, quiescent SMCs were kept in 10% FBS plus 10^−7 M halofuginone for 24 hours. The cultures were then washed and placed in 10% FBS with [^3H]-thymidine and without halofuginone. At various times after halofuginone removal, the cells were harvested and thymidine incorporation was determined. When halofuginone-treated cells were released from growth-arrest, there was a lag of 4-6 hours before initiation of DNA synthesis, which peaked by 10 hours (FIG. 1)."}, "[8]": {"conditions": "cited from earlier work"}, "[9]": {"conditions": "24 hours 10^-7 M halofuginone + 10% FBS, then washed"}}, "note": "Where “and” joins values, the source holds several entries; their conditions need not be identical. Equal values may be shown once."}
{"molecule": "O=NN(CCCl)C(=O)NCCCl", "note": "[BCNU, 1,3-bis(2-chloroethyl)-1-nitrosourea]", "values": [{"measurement": "SURVIVAL Days (ic tumor)", "setting": "[1]", "value": "97 ± 21", "unit": "days"}, {"measurement": "TUMOR GROWTH DELAY Days (sc tumor)", "setting": "[2]", "value": "3.8 days and 3.9 ± 0.4 days"}]}
{"molecule": "O=C(CC1NCCC[C@H]1O)Cn1cnc2cc(Br)c(Cl)cc2c1=O", "note": "(stereo in doubt) [halofuginone, 7-bromo-6-chloro-3-[3-(3-hydroxy-2-piperidinyl)-2-oxopropyl]-4(3H)-quinazolinone]", "values": [{"measurement": "leg length difference between the right and left leg", "setting": "[3]; 1-5 μg/mouse ip once daily, 35Gy or 45Gy, 2 and 4 months post radiation", "value": "dramatic decrease"}, {"measurement": "condition of irradiated leg (stiffness, skin)", "setting": "[3]; versus mice that did not receive halofuginone", "value": "definitely less stiff, and the skin was less dry"}, {"measurement": "decrease in the survival fraction", "setting": "[4]", "value": "approximately 50%"}, {"measurement": "percentage of cells in G0/G1", "setting": "[5]", "value": 65, "unit": "%"}, {"measurement": "percentage of cells progressing into G2/M phase", "setting": "[5]", "value": 7, "unit": "%"}, {"measurement": "number of cells arrested in G1 phase", "setting": "[6]", "value": "elevation"}, {"measurement": "[3H]-thymidine incorporation", "setting": "[7]; 10^-7 M halofuginone added with 10% FBS to quiescent SMC", "value": "only low levels"}, {"measurement": "lag before initiation of DNA synthesis after release from growth-arrest", "setting": "[7]; [9]", "value": "4 to 6", "unit": "h"}, {"measurement": "time of peak DNA synthesis after halofuginone removal", "setting": "[7]; [9]", "value": 10, "unit": "h"}, {"measurement": "cell cycle phase of arrest", "setting": "[7]; continual presence of halofuginone", "value": "reversibly arrest at late G1 phase"}]}
{"molecule": "Bleomycin", "values": [{"measurement": "death of patients associated with pulmonary fibrosis", "setting": "[8]", "value": "1% to 2"}, {"measurement": "treated patients with induced pulmonary fibrosis", "setting": "[8]", "value": "10% to 30"}]}
